ChEMBL document CHEMBL2417363, “Identification of quinazolinyloxy biaryl urea as a new class of SUMO activating enzyme 1 inhibitors” (Bioorg Med Chem Lett, 2013)
Calls of active or inactive are those of the source. The rule behind the calls is not given here.

Columns and labels:
[1] = biological target: T1, SUMO-activating enzyme (Homo sapiens) (UniProt Q9UBE0+Q9UBT2); assay: (§1) Inhibition of SUMO E1 (unknown origin)-mediated RanGAP1 sumoylation by immunoblotting analysis; assay type: protein-complex assay
SUMO-activating enzyme [2] = biological target: T2, SUMO-activating enzyme (Homo sapiens, UniProt Q9UBT2); assay: as §1; assay type: protein-complex assay
T2 sequence (Q9UBE0 whole entry): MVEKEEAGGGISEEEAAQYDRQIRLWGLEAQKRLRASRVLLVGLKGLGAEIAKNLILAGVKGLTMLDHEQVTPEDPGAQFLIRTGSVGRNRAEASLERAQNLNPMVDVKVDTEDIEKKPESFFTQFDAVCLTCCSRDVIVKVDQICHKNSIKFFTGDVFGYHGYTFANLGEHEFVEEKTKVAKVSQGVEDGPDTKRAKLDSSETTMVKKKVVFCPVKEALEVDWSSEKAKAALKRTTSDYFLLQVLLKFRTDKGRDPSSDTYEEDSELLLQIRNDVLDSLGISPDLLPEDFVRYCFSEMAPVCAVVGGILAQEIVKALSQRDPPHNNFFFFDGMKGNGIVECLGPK
T2 sequence (Q9UBT2 whole entry): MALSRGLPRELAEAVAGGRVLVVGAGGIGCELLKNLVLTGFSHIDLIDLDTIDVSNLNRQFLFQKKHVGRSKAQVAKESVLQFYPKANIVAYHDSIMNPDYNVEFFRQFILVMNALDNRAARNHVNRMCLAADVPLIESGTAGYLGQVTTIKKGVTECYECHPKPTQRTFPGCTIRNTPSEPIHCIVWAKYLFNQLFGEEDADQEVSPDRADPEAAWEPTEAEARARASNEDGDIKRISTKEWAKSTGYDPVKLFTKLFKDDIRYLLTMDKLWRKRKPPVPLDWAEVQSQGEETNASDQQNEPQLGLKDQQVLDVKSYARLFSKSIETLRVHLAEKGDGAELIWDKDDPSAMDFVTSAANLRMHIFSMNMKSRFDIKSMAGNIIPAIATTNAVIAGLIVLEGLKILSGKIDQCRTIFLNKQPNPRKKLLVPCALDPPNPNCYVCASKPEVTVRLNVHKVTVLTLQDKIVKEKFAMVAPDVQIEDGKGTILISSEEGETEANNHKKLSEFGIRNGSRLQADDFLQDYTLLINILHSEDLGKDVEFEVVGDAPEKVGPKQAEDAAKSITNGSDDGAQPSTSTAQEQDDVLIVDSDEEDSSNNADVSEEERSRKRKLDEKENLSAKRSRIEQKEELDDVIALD

[3] = biological target: T1, SUMO-activating enzyme (Homo sapiens); assay: Inhibition of SUMO E1 (unknown origin)-mediated RanGAP1 sumoylation at 100 uM by immunoblotting analysis; assay type: protein-complex assay
[4] = biological target: T1, SUMO-activating enzyme (Homo sapiens); assay: Inhibition of SUMO E1 (unknown origin)-biotinylated SUMO-1 thioester complex formation at 10 uM after 20 mins by SDS-PAGE analysis in presence of ATP; assay type: protein-complex assay
[5] = Permeability across human Caco2 cells; assay type: ADME, cell-based; conditions: Caco-2, read-out: permeability
[6] = Octanol-water partition coefficient, log P of the compound; assay type: physicochemical
SUMO-activating enzyme [7] = biological target: T2, SUMO-activating enzyme; assay: Inhibition of SUMO E1 (unknown origin) assessed as SUMO E1-SUMO thioester bond formation; assay type: protein-complex assay
[8] = biological target: T1, SUMO-activating enzyme (Homo sapiens); assay: Inhibition of SUMO E1 (unknown origin)-mediated RanGAP1 sumoylation at < 30 uM by immunoblotting analysis; assay type: protein-complex assay

| SMILES | inhibition [1] | IC50 (SUMO-activating enzyme [2]) | inhibition [3] | inhibition [4] | Papp [5] | logP [6] | IC50 (SUMO-activating enzyme [7]) | inhibition [8] |
| --- | --- | --- | --- | --- | --- | --- | --- | --- |
| CCCCCC/C=C\CCCCCCCc1cccc(O)c1C(=O)O |  |  |  | Active |  |  |  |  |
| N#Cc1ccc(NC(=O)Nc2ccc(Cc3ccc(NC(=O)Nc4ccc(C#N)cc4)cc3)cc2)cc1 |  |  |  |  | 1.52 ×10⁻⁶ cm/s | 2.8 | 11.1 µM |  |
| O=C(Nc1ccc(OCc2ccccc2)cc1)Nc1ccc(Oc2ncnc3cc(Cl)ccc23)nc1 | Dose-dependent effect | 35.4 µM | Active |  |  |  |  |  |
| COc1ccc(NC(=O)Nc2ccc(Cc3ccc(NC(=O)Nc4ccc(OC)cc4)cc3)cc2)cc1 |  |  |  |  | 35.3 ×10⁻⁶ cm/s | 4.4 | 11.7 µM |  |
| Cc1cccc(NC(=O)Nc2ccc(Cc3ccc(NC(=O)Nc4cccc(C)c4)cc3)cc2)c1 |  |  |  |  | 35.4 ×10⁻⁶ cm/s | 4.8 | 14.4 µM |  |

Next, values leading:

| inhibition [1] | IC50 (SUMO-activating enzyme [2]) | inhibition [3] | inhibition [4] | Papp [5] | logP [6] | IC50 (SUMO-activating enzyme [7]) | inhibition [8] | SMILES |
| --- | --- | --- | --- | --- | --- | --- | --- | --- |
| Dose-dependent effect | 57.3 µM | Active |  |  |  |  |  | O=C(Nc1ccccc1)Nc1ccc(Oc2ncnc3cc(Cl)ccc23)nc1 |
| Dose-dependent effect | 13.4 µM | Active | Active |  |  |  |  | COc1ccc(NC(=O)Nc2ccc(Oc3ncnc4cc(Cl)ccc34)nc2)cc1OC1CCCC1 |
| Dose-dependent effect | 35.6 µM | Active |  | 66.2 ×10⁻⁶ cm/s | 4.5 |  | inactive | O=C(Nc1ccc(Oc2ncnc3cc(Cl)ccc23)nc1)Nc1cccc(C(F)(F)F)c1 |
| Dose-dependent effect | 73 µM | Active |  |  |  |  |  | O=C(Nc1ccc(F)cc1)Nc1ccc(Oc2ncnc3cc(Cl)ccc23)nc1 |
